We go through 59 compounds from patent US8183252B2, “Heterocyclic aspartyl protease inhibitors” (Schering Corporation, priority 2007, dated 2012).

pKi: −log10 of the molar value. Read-outs that look alike come from different tables or passages of the source.

This test addresses T1, human BACE1 (sproBACE1) (Homo sapiens, UniProt P56817).
T1 construct: sBACE1, corresponding to amino acids 1-454; made in house; host or cells: Sf9 insect cells (baculovirus), secreted into the medium
Put plainly: BACE-1 Peptide Hydrolysis Assay (HTRF). The format is biochemical. The text has this: A HindIII/PmeI fragment from pCDNA4-sBACE1myc/His was blunt ended using Klenow and subcloned into the Stu I site of PFASTBACI(A) (Invitrogen). A sBACE1mycHis recombinant bacmid was generated by transposition in DH10Bac cells (GIBCO/BRL). Subsequently, the sBACE1mycHis bacmid construct was transfected into sf9 cells using CellFectin (Invitrogen, San Diego, Calif.) in order to generate recombinant baculovirus. […] Five milliliters of high titer plaque purified sBACEmyc/His virus was used to infect 1 L of logarithmically growing sf9 cells for 72 hours. Intact cells were pelleted by centrifugation at 3000×g for 15 minutes. The supernatant, containing secreted sBACE1, was collected and diluted 50% v/v with 100 mM HEPES, pH 8.0. The diluted medium was loaded onto a Q-sepharose column. The Q-sepharose column was washed with Buffer A (20 mM HEPES, pH 8.0, 50 mM NaCl).
Proteins, were eluted from the Q-sepharose column with Buffer B (20 mM HEPES, pH 8.0, 500 mM NaCl). The protein peaks from the Q-sepharose column were pooled and loaded onto a Ni-NTA agarose column. The Ni-NTA column was then washed with Buffer C (20 mM HEPES, pH 8.0, 500 mM NaCl). Bound proteins were then eluted with Buffer D (Buffer C+250 mM imidazole).
Reactions were initiated by addition of substrate in a 5 μl aliquot resulting in a total volume of 25 μl. After 3 hr at 30° C. reactions were terminated by addition of an equal volume of 2× stop buffer containing 50 mM Tris-HCl pH 8.0, 0.5 M KF, 0.001% Brij-35, 20 μg/ml SA-XL665 (cross-linked allophycocyanin protein coupled to streptavidin; CIS-Bio International, France) (0.5 μg/well). Plates were shaken briefly and spun at 1200×g for 10 seconds to pellet all liquid to the bottom of the plate before the incubation.
Y=Bottom+(Top-Bottom)/(1+10^((LogEC50−X)*Hill Slope)); X is the logarithm of concentration of I, Y is the percent change in ratio and Y starts at bottom and goes to top with a sigmoid shape.
In general terms: In TR-FRET formats the signal depends on donor and acceptor labels being close together.

T1 sequence (P56817 22-454): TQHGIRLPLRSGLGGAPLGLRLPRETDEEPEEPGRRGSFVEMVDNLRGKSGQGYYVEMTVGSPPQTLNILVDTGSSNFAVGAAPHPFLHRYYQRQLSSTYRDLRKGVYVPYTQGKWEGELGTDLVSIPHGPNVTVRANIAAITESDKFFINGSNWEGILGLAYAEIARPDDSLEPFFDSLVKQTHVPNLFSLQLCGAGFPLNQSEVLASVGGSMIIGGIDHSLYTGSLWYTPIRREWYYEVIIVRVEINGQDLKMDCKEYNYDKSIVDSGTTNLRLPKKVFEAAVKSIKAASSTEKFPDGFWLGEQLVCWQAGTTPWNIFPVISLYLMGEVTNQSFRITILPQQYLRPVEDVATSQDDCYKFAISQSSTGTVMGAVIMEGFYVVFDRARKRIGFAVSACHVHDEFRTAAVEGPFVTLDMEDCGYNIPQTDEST

`CC1(c2cccc(-c3cccc(Cl)c3)c2)NC(=N)N(CC2CCN(C(=O)CC3CCCCC3)C2)C1=O` (centres unmarked): the pKi (read-out: BACE-1 Ki) was over 5.30.

As for `CN1C(=N)N[C@](C)(c2ccnc(-c3cccnc3F)c2)CC1=O`, for the setting “read-out: BACE-1 Ki”, the negative logarithm of the Ki (pKi) is over 5.30.

`CN1C(=N)N[C@](C)(c2ccc(-c3cccc(C(F)(F)F)c3)s2)[C@@H](C2CC2)C1=O`: under “read-out: BACE-1 Ki”, the pKi was over 5.30.

Take `N=C1NC(c2ccccc2)(c2ccccc2)C(=O)N1Cc1cccc(C(=O)N2CCOCC2)c1`: the pKi (read-out: BACE-1 Ki) is over 5.30.

`CN1C(=N)NC(C)(c2cccc(-c3cncc(C#N)c3)c2)C1=O` (racemic): the pKi (read-out: BACE-1 Ki) is over 5.30.

For the compound `Cc1cc(F)ccc1[C@]1(C)CC(=O)N(C)C(=N)N1`, under “read-out: BACE-1 Ki”, the pKi was over 5.30.

On to `CCC(CO)N1C(=N)NC(c2cccc(-c3cccc(Cl)c3)c2)(C2CC2)C1=O` (centres unmarked) [4-imidazolidinone, 5-(3′-chloro[1,1′-biphenyl]-3-yl)-5-cyclopropyl-3-[1-(hydroxymethyl)propyl]-2-imino-], for which the pKi (read-out: BACE-1 Ki) is over 5.30.

Consider `COc1ccc(F)c(-c2cccc(C3(C)CON(C)C(=N)N3)c2)c1` (centres unmarked), for which the pKi (read-out: BACE-1 Ki) was over 5.30.

With `CN1C(=N)N[C@](C)(c2cc(-c3ccc(F)nc3)c3sccc3c2)CC1=O`, the pKi (read-out: BACE-1 Ki) is over 5.30.

`CN1C(=N)NC(c2cccc(Br)c2)(C2CCCCC2)C1=O` (centres unmarked) [5-(3-BROMOPHENYL)-5-CYCLOHEXYL-2-IMINO-3-METHYL-4-IMIDAZOLIDINONE]: the pKi (read-out: BACE-1 Ki) was over 5.30.

In the case of `COc1cncc(-c2cccc(C3(C)NC(=N)N(CC4CC(=O)N(Cc5ccccc5)C4)C3=O)c2)c1` (centres unmarked), the pKi (read-out: BACE-1 Ki) was over 5.30.

`CN(C)C(=O)N1CCC([C@H]2C(=O)N(C)C(=N)N[C@]2(C)c2cc(-c3cccc(C#N)c3)cs2)CC1`: the pKi (read-out: BACE-1 Ki) was over 5.30.

Turning to `CN1C(=N)NC(c2csc(-c3cccc(C#N)c3)c2)(C2CC2)C1=O` (centres unmarked), the pKi (read-out: BACE-1 Ki) is over 5.30.

Consider `CCCS(=O)(=O)N1CCC(CN2C(=N)NC(c3ccccc3)(c3ccccc3)C2=O)CC1` [piperidine, 4-[(2-imino-5-oxo-4,4-diphenyl-1-imidazolidinyl)methyl]-1-(propylsulfonyl)-], for which, where the note is “read-out: BACE-1 Ki”, the pKi is over 5.30.

Turning to `CCCS(=O)(=O)Nc1cccc(CN2C(=N)NC(c3ccccc3)(c3ccccc3)C2=O)c1`, the pKi (read-out: BACE-1 Ki) is over 5.30.

Turning to `CN1C(=N)NC(C)(c2cc(-c3cccc(C#N)c3)cs2)C(CCCc2ccncc2)C1=O` (centres unmarked), the pKi (read-out: BACE-1 Ki) is over 5.30.

As to `Cc1cccc(-c2cccc(C3(C4CC4)NC(=N)N(C)C3=O)c2)n1` (centres unmarked), under “read-out: BACE-1 Ki”, the pKi was over 5.30.

With `CN1C(=N)N[C@](CCc2ccccc2)(C[C@H]2CCC[C@@H](Nc3ccccc3)C2)C1=O`, the pKi (read-out: BACE-1 Ki) is over 5.30.

In the case of `CN1C(=N)NC(C)(c2cc(-c3cccc(C#N)c3)cs2)C(n2cccn2)C1=O` (single isomer, unassigned), the pKi (read-out: BACE-1 Ki) is over 5.30.

Turning to `CC(C)[C@H](CO)N1C(=N)NC(c2cccc(-c3cccc(Cl)c3)c2)(C2CC2)C1=O` (stereo partly drawn) [4-imidazolidinone, 5-(3′-chloro[1,1′-biphenyl]-3-yl)-5-cyclopropyl-3-[(1R)-1-(hydroxymethyl)-2-methylpropyl]-2-imino-], under “read-out: BACE-1 Ki”, the negative-log Ki (pKi) was over 5.30.

With `CN1C(=N)N[C@@](CCC2CCCCC2)(C[C@H]2CCC[C@@H](Nc3ccc4cccc(Cl)c4n3)C2)C1=O`, for the setting “read-out: BACE-1 Ki”, the negative-log Ki (pKi) is over 5.30.

Regarding `CN1C(=N)N[C@](CCc2ccccc2)(C[C@H]2CCC[C@@H](NC3CCCC3)C2)C1=O`, the pKi (read-out: BACE-1 Ki) is over 5.30.

`COc1ccc(S(=O)(=O)N2CCC(CN3C(=N)NC(c4ccccc4)(c4ccccc4)C3=O)CC2)cc1` [piperidine, 4-[(2-imino-5-oxo-4,4-diphenyl-1-imidazolidinyl)methyl]-1-[(4-methoxyphenyl)sulfonyl]-]: the pKi (read-out: BACE-1 Ki) was over 5.30.

For the compound `CN1C(=N)N[C@@](c2cccc(-c3ccc(F)c(C#N)c3)c2)(C2CC2)C1=O`, the negative-log Ki (pKi) (read-out: BACE-1 Ki) is over 5.30.

As to `CCCN(CCC)C(=O)c1cccc(CN2C(=N)NC(C)(c3cccc(Br)c3)C2=O)c1` (racemic), where the note is “read-out: BACE-1 Ki”, the pKi is over 5.30.

In the case of `CC(=O)N1CCC[C@H](CN2C(=N)NC(c3ccccc3)(c3ccccc3)C2=O)C1`, the pKi (read-out: BACE-1 Ki) is over 5.30.

Take `CCn1nccc1Nc1cccc(C2(C)NC(=N)N(CC3CCN(C(C)=O)CC3)C2=O)c1` (racemic): the pKi is over 5.30.

As for `CC1(c2cccc(-c3cccc(Cl)c3)c2)NC(=N)N(CC2CCN(C(=O)Cc3ccccc3)C2)C1=O` (centres unmarked), the negative-log Ki (pKi) (read-out: BACE-1 Ki) is over 5.30.

Take `N=C1NC(c2ccccc2)(c2ccccc2)C(=O)N1Cc1cccc(NC(=O)c2ccccc2)c1` [BENZAMIDE, N-[3-[(2-IMINO-5-OXO-4,4-DIPHENYL-1-IMIDAZOLIDINYL)METHYL]PHENYL]-]: the pKi (read-out: BACE-1 Ki) was over 5.30.

On to `COc1cccc(-c2cccc(C3(C)NC(=N)N(Cc4cccc(N5CCCCS5(=O)=O)c4)C3=O)c2)c1` (racemic), for which the pKi (read-out: BACE-1 Ki) was over 5.30.

Regarding `N=C1NC(c2ccccc2)(c2ccccc2)C(=O)N1CC1CCN(C(=O)Nc2cccc(F)c2)CC1`, the pKi (read-out: BACE-1 Ki) was over 5.30.

In the case of `CN1C(=N)N[C@](C)(c2cc(-c3cncc(Cl)n3)cs2)CC1=O`, where the note is “read-out: BACE-1 Ki”, the pKi was over 5.30.

Regarding `CN1C(=N)N[C@](CCC2CCCCC2)(C[C@H]2CCC[C@@H](NC(=O)c3ccc4ccccc4n3)C2)C1=O`, the pKi (read-out: BACE-1 Ki) was over 5.30.

With `CN1C(=N)N[C@](CCC2CCCCC2)(C[C@H]2CCC[C@@H](NC(=O)c3cc(Cl)nc(Cl)c3)C2)C1=O`, for the setting “read-out: BACE-1 Ki”, the pKi was over 5.30.

In the case of `CN1C(=N)NC(C)(c2cccc(N3CCC(C#N)C3)c2)CC1=O` (centres unmarked), the pKi (read-out: BACE-1 Ki) is over 5.30.

As for `CC1(c2cccc(-c3cccc(Cl)c3)c2)NC(=N)N(CC2CCN(S(C)(=O)=O)C2)C1=O` (centres unmarked), the pKi (read-out: BACE-1 Ki) was over 5.30.

Turning to `CN1C(=N)N[C@](C)(c2ccc3c(c2)c(-c2cccs2)cn3C)CC1=O`, the pKi (read-out: BACE-1 Ki) is over 5.30.

As to `CN1C(=N)NC(C)(c2cccc(-c3cc(Cl)ccc3CNC(=O)Nc3ccccc3)c2)C1=O` (centres unmarked) [urea, N-[[5-chloro-3′-(2-imino-1,4-dimethyl-5-oxo-4-imidazolidinyl)[1,1′-biphenyl]-2-yl]methyl]-N′-phenyl-], the pKi (read-out: BACE-1 Ki) was over 5.30.

With `CCN(CC)CCCN1C(=N)NC(c2cccc(-c3cccc(Cl)c3)c2)(C2CC2)C1=O` (centres unmarked) [4-imidazolidinone, 5-(3′-chloro[1,1′-biphenyl]-3-yl)-5-cyclopropyl-3-[3-(diethylamino)propyl]-2-imino-], the pKi (read-out: BACE-1 Ki) was over 5.30.

As for `COc1cncc(-c2cccc(C3(C)NC(=N)N(CC4CC(=O)N(c5ccccc5)C4)C3=O)c2)c1` (centres unmarked), the pKi (read-out: BACE-1 Ki) was over 5.30.

For `CN1C(=N)N[C@](CCc2ccccc2)(C[C@H]2CCC[C@H](Nc3cccnc3)C2)C1=O`, the pKi (read-out: BACE-1 Ki) is over 5.30.

As to `CCN1C(=N)N[C@](C)(c2cc(-c3cccc(C#N)c3)cs2)CC1=O`, the pKi (read-out: BACE-1 Ki) was over 5.30.

With `CN1C(=N)N[C@](C)(c2cc(-c3cc(C#N)ccc3Cl)c3sccc3c2)CC1=O`, the pKi (read-out: BACE-1 Ki) was over 5.30.

On to `CN1C(=N)N[C@](C)(c2ccc(-c3cc(Cl)cc(C#N)c3)s2)[C@@H](C2CC2)C1=O`, for which, under “read-out: BACE-1 Ki”, the pKi is over 5.30.

For the compound `CN1C(=N)N[C@](C)(c2ccnc(-c3cccnc3F)c2)[C@@H](c2ccc(C3CC3)cc2)C1=O`, the negative-log Ki (pKi) (read-out: BACE-1 Ki) is over 5.30.

In the case of `CN1C(=N)NC(c2cccc(-n3ccnc3)c2)(C2CC2)C1=O` (centres unmarked) [5-CYCLOPROPYL-5-[3-(1H-IMIDAZOL-1-YL)PHENYL]-2-IMINO-3-METHYL-4-IMIDAZOLIDINONE], the pKi (read-out: BACE-1 Ki) was over 5.30.

As for `CN1C(=N)NC(c2ccc(-c3ccc(F)c(C#N)c3)s2)(C2CC2)CC1=O` (centres unmarked), the pKi (read-out: BACE-1 Ki) was over 5.30.

As to `CN1OCC(C)(c2cccc(-c3cc(Cl)cc(Cl)c3)c2)NC1=N` (centres unmarked), the negative-log Ki (pKi) (read-out: BACE-1 Ki) was over 5.30.

`CN1C(=N)N[C@](C)(c2ccc3scc(CCC4CC4)c3c2)CC1=O`: the pKi (read-out: BACE-1 Ki) was over 5.30.

Take `CCc1cccc(-c2cc([C@]3(C)CC(=O)N(C)C(=N)N3)nn2C)c1`: the negative-log Ki (pKi) (read-out: BACE-1 Ki) is over 5.30.

Turning to `CC[C@H]1C(=O)N(C)C(=N)N[C@]1(C)c1cccc(-c2cccc(OC)c2)c1`, the pKi (read-out: BACE-1 Ki) is over 5.30.

As for `CCCC(=O)N1CCC[C@H](CN2C(=N)NC(c3ccccc3)(c3ccccc3)C2=O)C1`, where the note is “read-out: BACE-1 Ki”, the pKi was over 5.30.

Consider `CN1C(=N)NC(c2ccccc2)(c2cc(-c3cccc(F)c3)cs2)C1=O` (centres unmarked) [5-[4-(3-FLUOROPHENYL)-2-THIENYL]-2-IMINO-3-METHYL-5-PHENYL-4-IMIDAZOLIDINONE], for which the pKi (read-out: BACE-1 Ki) was over 5.30.

Consider `CN1C(=N)N[C@](C)(c2nc(-c3cccnc3)cs2)CC1=O`, for which the pKi (read-out: BACE-1 Ki) is over 5.30.

For `CC(C)CC(=O)Nc1cccc(CN2C(=N)NC(c3ccccc3)(c3ccccc3)C2=O)c1`, the negative-log Ki (pKi) (read-out: BACE-1 Ki) was over 5.30.

In the case of `CN(c1cccc(CN2C(=N)NC(c3ccccc3)(c3ccccc3)C2=O)c1)S(C)(=O)=O`, the pKi (read-out: BACE-1 Ki) was over 5.30.

For the compound `CN1CCC(CN2C(=N)NC(C)(c3cccc(-c4cccc(Cl)c4)c3)C2=O)C1` (centres unmarked), for the setting “read-out: BACE-1 Ki”, the pKi is over 5.30.

As for `CN1C(=N)N[C@](C)(c2cc(Br)c(-c3cncc(Br)c3)s2)CC1=O`, the pKi (read-out: BACE-1 Ki) was over 5.30.

Consider `CN1C(=N)N[C@](C)(c2csc(-c3ccc(F)c(C#N)c3)c2)CC1=O`, for which, where the note is “read-out: BACE-1 Ki”, the pKi is over 5.30.

For orientation: pKi means the negative decadic logarithm of the Ki, by convention in mol/L.
